The values below are quoted from earlier work in patent US20070059740A1, “METHOD OF TARGETING A2B ADENOSINE RECEPTOR ANTAGONIST THERAPY” (priority 2005, published 2007).

Molecules are shown by their SMILES.

For the data set, the system named is Zucker rats. The conditions noted are these: A2B adenosine receptor antagonist, reported by LaNoue et al., U.S. Pat. No. 6,060,481.

`CCCn1c(=O)c2[nH]c(-c3ccc(C=CC(=O)O)cc3)nc2n(CCC)c1=O` [1,3-dipropyl-8-(p-acrylic)-phenylxanthine]: the glucose tolerance entry was “improves glucose tolerance”.
